In patent US10233205B2, “Magnetic resonance imaging contrast agent capable of detecting hydrogen peroxide and reducing reactive oxygen species” (Auburn University, priority 2015, dated 2019):
Several values for one entry are separate records, joined by “and”; a condition that tells them apart may be missing. Equal values may be shown once.

How the values were obtained:
[1] = T1-weighted relaxivity (r1) on 3 T clinical MRI scanner; assay type: physicochemical; conditions: for r1 after addition of H2O2 / r1, second series of experiments, after H2O2 (oxidized form) / r1, second series of experiments, before H2O2 (reduced form) / r1 (T1-weighted relaxivity): 50 mM HEPES pH 7.00, 3 T; for r1 after addition of H2O2 / r1 (T1-weighted relaxivity): 25° C.; for r1, second series of experiments, after H2O2 (oxidized form) / r1, second series of experiments, before H2O2 (reduced form): 298 K; for r1 (T1-weighted relaxivity): no oxidant
Text: All MRI data were collected at the Auburn University MRI Research Center (Auburn, Ala.) on a Siemens Verio open-bore 3-T MRI clinical scanner. A 15-channel knee coil was used to simultaneously image 12-26 samples. An inversion recovery (IR) sequence was used that featured a non-selective adiabatic inversion pulse followed by a slice-selective gradient recalled echo (GRE) readout after a delay period corresponding to the inversion time (TI).^1-2 The GRE was a saturation readout, such that only one line of k-space was acquired per repetition time (TR). This method was selected to maximize both the signal strength and the accuracy of the T1 estimates. Specific imaging parameters were as follows: TR was set to 4 s, TI was varied from 4.8 to 2500 ms over 37 steps, the echo time (TE) was set to 3.6 ms, the flip angle equaled 90°, averages=1, slice thickness=5 mm, field of view=140×140 mm, matrix=128×128, resulting in a pixel size of 1.1×1.1×5.0 mm. All samples were run in 50 mM solutions of HEPES in water, buffered to pH 7.0 and kept at […]. The manganese content was systematically varied from 0.10 to 1.00 mM. The inverses of the T1 values were plotted versus the concentration of Mn(II) to obtain r1 values. All reported r1 values are averages from the results of two separate series of experiments. Each series of experiments used a different batch of 1.
Image analysis was performed using custom Matlab programs (Mathworks, Natick, Mass.). The initial TI=4.8 ms image served as a baseline to determine circular region of interest (ROI) boundaries for each sample; from these, the mean pixel magnitudes for each ROI were calculated. For each of the 36 subsequent TI images, the same ROI boundaries were applied and the mean pixel magnitude calculations were repeated. This gave consistent ROI spatial definitions and a corresponding time course of magnitudes for each of the samples over all the TI time points. Each sample's complex phase was used to correct the magnitude polarity to produce a complete exponential T1 inversion recovery curve. The Nelder-Mead simplex algorithm^3 was applied to each sample's exponential curve to estimate its corresponding T1 value.
(§1) For the relaxivity measurements, all samples were run in 298 K aqueous solutions containing 50 mM HEPES buffered to pH 7.00, using a 3 T field provided by a clinical MRI scanner. The data were fit to the indicated linear equations; the y-intercepts were within error of 1/T1 measurements associated with two control samples that contained no Mn(II): (A) 10 mM H2O2 in 50 mM HEPES buffer and (B) pure 50 mM HEPES buffer (both 0.46 s^−1).
as §1, with “All” for “For the relaxivity measurements, all”, “s^−1). The oxidation of 1 by 2,3-dichloro-5,6-dicyano-1,4-benzoquinone (DDQ) occurred in CH2Cl2. After the reaction occurred, the 2,3-dichloro-5,6-dicyanoquinol product was removed via filtration, the CH2Cl2 was removed, and the sample was dissolve in HEPES buffer for MRI analysis. The other oxidation reactions occurred entirely in HEPES buffer.” for “s^−1).”
The capability of 3 to serve as a MRI contrast agent was assessed with a 3 T clinical MRI scanner. All samples were run in 298 K aqueous solutions containing 50 mM HEPES buffered to pH 7.00, using a 3 T field provided by a clinical MRI scanner. All samples were prepared under air. The oxidized samples were prepared by directly adding H2O2 to solutions of 3 in aqueous solutions buffered to pH 7.0. The oxidation reactions were allowed to proceed for 30 min at 298 K before the T1 measurements were taken. […]

Cyclic voltammetry = assay type: physicochemical; conditions: for ΔE, separation between anodic and cathodic peaks: ligand redox feature
Procedure: All ^1H and ^13C NMR spectra were recorded on a 400 MHz AV Bruker NMR spectrometer; all reported resonances were referenced to internal standards. Electron paramagnetic resonance (EPR) spectra were collected using a Bruker EMX-6/1 X-band EPR spectrometer operated in the perpendicular mode. The acquired data were analyzed with the program EasySpin. Each sample was run as a frozen solution in a quartz tube. High-resolution mass spectrometry (HR-MS) data were obtained at the Mass Spectrometer Center at Auburn University on a Bruker microflex LT MALDI-TOF mass spectrometer via direct probe analysis operated in the positive ion mode. IR data were collected using a Shimadzu IR Prestige-21 FT-IR spectrophotometer. A Johnson Matthey magnetic susceptibility balance (model MK I#7967) was used to measure the magnetic properties of the Mn(II) complex with H2qtp1; the reported eff value was the average of those measured for two independently prepared solid samples. Atlantic Microlabs (Norcross, Ga.) performed the elemental analyses (C, H, N). All samples submitted for elemental analysis were crystallized and dried under vacuum prior to their shipment. All cyclic voltammetry was performed under N2 at 294 K using an Epsilon electrochemistry workstation (Bioanalytical System, Inc.), a gold working electrode, a platinum wire auxiliary electrode, and a Ag/AgCl reference electrode.
Complex 3 was studied by cyclic voltammetry (CV) in water containing 50 mM phosphate to buffer the solution to pH 7.2. A redox feature with E1/2 of 60 mV vs. Ag/AgCl (295 mV vs. NHE) is observed (FIG. 22).
Similar redox processes were found for both 1 and a Zn(II)-H2qtp1 complex, leading us to assign the 60 mV redox event to the oxidation of the ligand, rather than the manganese. The separation between the anodic and cathodic peaks (ΔE) for this feature is 230 mV; this is much less reversible than its analog in the CV of 1 (75 mV). A second and entirely irreversible redox event at 725 mV (960 mV vs NHE) is tentatively assigned to the oxidation of Mn(II) to Mn(III). For this analysis, the scan rate was 100 mV/s. For the quasi-reversible feature: E1/2=57 mV vs. Ag/AgCl, ΔE=232 mV. An irreversible feature with Epc=725 mV is also observed.

| Compound | r1 after addition of H2O2 ([1]; 10 mM H2O2) | r1, second series of experiments, after H2O2 (oxidized form) ([1]; 10 mM H2O2) | r1, second series of experiments, before H2O2 (reduced form) [1] | r1 (T1-weighted relaxivity) [1] | ΔE, separation between anodic and cathodic peaks (Cyclic voltammetry) | E1/2 vs. NHE (Cyclic voltammetry; phosphate buffer pH 7.2, ligand feature) | increase of relaxivity upon exposure to H2O2 [1] | r1 response to H2O2 ([1]; 10 mM H2O2) | E1/2 vs. Ag/AgCl (Cyclic voltammetry; phosphate buffer pH 7.2, quasi-reversible ligand feature) | irreversible redox event (Epc) vs. Ag/AgCl (Cyclic voltammetry; tentatively Mn(II) to Mn(III)) | irreversible redox event vs NHE (Cyclic voltammetry; tentatively Mn(II) to Mn(III)) |
| --- | --- | --- | --- | --- | --- | --- | --- | --- | --- | --- | --- |
| CC#N.O=S(=O)([O-])C(F)(F)F.O=S(=O)([O-])C(F)(F)F.[Mn+2].[O-]c1ccc(O)cc1CN(CCN(Cc1ccccn1)Cc1ccccn1)Cc1ccccn1 [Complex 1, Acetonitrilo(N-(2,5-dihydroxy-benzyl)-N,N′,N′-tris(2-pyridinylmethyl)-1,2-ethanediamine)manganese(II) triflate] | 5.30 mM⁻¹ s⁻¹ | 5.30 mM⁻¹ s⁻¹ | 4.73 mM⁻¹ s⁻¹ | 4.73 mM⁻¹ s⁻¹ | 75 mV | about 300 mV |  |  |  |  |  |
| CC#N.Cc1ccc(O)c(CN(CCN(Cc2ccccn2)Cc2ccccn2)Cc2ccccn2)c1.[Mn+2].[O-][Cl+3]([O-])([O-])[O-].[O-][Cl+3]([O-])([O-])[O-] [Complex 2, reference compound] |  |  |  | 4.39 mM⁻¹ s⁻¹ |  |  |  |  |  |  |  |
| cis-Dibromo(N,N′-bis(2,5-dihydroxybenzyl)-N,N′-bis(2-pyridinylmethyl)-1,2-ethanediamine)manganese(II) [Complex 3] | 7.17 (+0.15) mM^−1 s^−1 | 7.32 mM⁻¹ s⁻¹ | 5.64 mM⁻¹ s⁻¹ | 5.46 (+0.19) mM^−1 s^−1 | 230 mV and 232 mV |  | 31% | 1.71 mM⁻¹ s⁻¹ | 60 mV and 57 mV | 725 mV | 960 mV |
